Test results published in patent US10499641B2 (priority 2010, dated 2019).

Columns and labels:
Plasmopara viticola = assay: Plasmopara test (grapevine)/protective; type: in vivo; conditions: young grapevine plants, sprayed, active ingredient concentration 10 ppm, evaluation 6 days after inoculation; 100% = no infection
Experimental: Plasmopara Test (Grapevine)/Protective
• Solvent: 24.5 parts by weight of acetone • 24.5 parts by weight of dimethylacetamide • Emulsifier: 1 part by weight of alkylaryl polyglycol ether
[To produce an appropriate active ingredient formulation, 1 part by weight of active ingredient is mixed with the specified amounts of solvent and emulsifier, and the concentrate is diluted with water to the desired concentration.
To test for protective efficacy, young plants are sprayed with the active ingredient formulation at the stated application rate. After the spray coating has dried on, the plants are inoculated with an aqueous spore suspension of Plasmopara viticola and then remain in an incubation cabin at approx. 20° C. and 100% relative air humidity for 1 day. Subsequently, the plants are placed in a greenhouse at approx. 21° C. and approx. 90% air humidity for 4 days. The plants are then moistened and placed in an incubation cabin for 1 day.
Evaluation follows 6 days after the inoculation. 0% means an efficacy which corresponds to that of the control, whereas an efficacy of 100% means that no infection is observed.
In this test, the following inventive compounds show, at an active ingredient concentration of 10 ppm, an efficacy of 70% or more: […]

Phytophthora infestans = type: in vivo; conditions: young tomato plants, sprayed, active ingredient concentration 100 ppm, inoculated 1 day after treatment, evaluation 7 days after inoculation; 100% = no infection

SMILES | Eff. % (Plasmopara viticola) [%] | Eff. % (Phytophthora infestans) [%]
CON=C(C)c1cccc(C2CC(c3csc(C4CCN(C(=O)Cn5nc(C(F)F)cc5C(F)F)CC4)n3)=NO2)c1 (mixture of isomers) [Example I-21] | 100 | 100
CCON=Cc1ccccc1C1CC(c2csc(C3CCN(C(=O)Cn4nc(C(F)F)cc4C(F)F)CC3)n2)=NO1 (mixture of isomers) [Example I-27] | 99 | 100
Cc1ccc(C)c(NC(=O)N2CCC(c3nc(C4=NOC(c5ccccc5OS(C)(=O)=O)C4)cs3)CC2)c1 (stereo not drawn) [Example I-74] | 100 | 100
Cc1cc(C(F)(F)F)nn1CC(=O)N1CCC(c2nc(C3=NOC(c4ccccc4OCC#N)C3)cs2)CC1 (stereo not drawn) [Example I-140] | 100 | 84
Cc1cc(C(F)(F)F)nn1CC(=O)N1CCC(c2nc(C3=NOC(c4cccc(C=NO)c4)C3)cs2)CC1 (mixture of isomers) [Example I-10] | 92 | 100
CCON=Cc1ccccc1C1CC(c2csc(C3CCN(C(=O)Cn4nc(C(F)(F)F)cc4C)CC3)n2)=NO1 (stereo not drawn) [Example I-29] | 90 | 100
CON=C(C)c1ccccc1C1CC(c2csc(C3CCN(C(=O)Cn4nc(C(F)F)cc4C(F)F)CC3)n2)=NO1 (mixture of isomers) [Example I-32] | 85 | 100
O=C(Cn1nc(C(F)F)cc1C(F)F)N1CCC(c2nc(C3=NOC(c4ccccc4OS(=O)(=O)C4CC4)C3)cs2)CC1 (stereo not drawn) [Example I-64] | 100 | 100
CON=Cc1ccccc1C1CC(c2csc(C3CCN(C(=O)Cn4nc(C(F)(F)F)cc4C)CC3)n2)=NO1 (stereo not drawn) [Example I-34] | 87 | 100
CS(=O)(=O)Oc1c(F)cccc1C1CC(c2csc(C3CCN(C(=O)Cn4nc(C(F)F)cc4C(F)F)CC3)n2)=NO1 (stereo not drawn) [Example I-85] | 100 | 75
CON=Cc1ccccc1C1CC(c2csc(C3CCN(C(=O)Cn4nc(C(F)F)cc4C(F)F)CC3)n2)=NO1 (stereo not drawn) [Example I-26, 2-{3-[2-(1-{[3,5-Bis(difluoromethyl)-1H-pyrazol-1-yl]acetyl}piperidin-4-yl)-1,3-thiazol-4-yl]-4,5-dihydro-1,2-oxazol-5-yl}benzaldehyde O-methyloxime] | 100 | 100
O=C(Oc1ccccc1C1CC(c2csc(C3CCN(C(=O)Cn4nc(C(F)F)cc4C(F)F)CC3)n2)=NO1)c1ccccc1F (stereo not drawn) [Example I-130] | 100 | 100
O=C(Oc1ccccc1C1CC(c2csc(C3CCN(C(=O)Cn4nc(C(F)F)cc4C(F)F)CC3)n2)=NO1)c1cccc(F)c1 (stereo not drawn) [Example I-129] | 98 | 98
Cc1ccc(Cl)cc1NC(=O)N1CCC(c2nc(C3=NOC(c4cccc(C=NO)c4)C3)cs2)CC1 (mixture of isomers) [Example I-14] | 100 | 100
CC(=NO)c1cccc(C2CC(c3csc(C4CCN(C(=O)Cn5nc(C(F)F)cc5C(F)F)CC4)n3)=NO2)c1 (mixture of isomers) [Example I-18] | 100 | 100
CON=C(C)c1ccccc1C1CC(c2csc(C3CCN(C(=O)Cn4nc(C(F)(F)F)cc4C)CC3)n2)=NO1 (mixture of isomers) [Example I-31] | 97 | 100
CCS(=O)(=O)Oc1cccc(C2CC(c3csc(C4CCN(C(=O)Cn5nc(C(F)F)cc5C(F)F)CC4)n3)=NO2)c1 (stereo not drawn) [Example I-77] | 93 | 98
CON=Cc1cccc(C2CC(c3csc(C4CCN(C(=O)Cn5nc(C(F)(F)F)cc5C)CC4)n3)=NO2)c1 (mixture of isomers) [Example I-15] | 81 | 100

SMILES | Eff. % (Plasmopara viticola) [%] | Eff. % (Phytophthora infestans) [%]
O=C(Oc1ccccc1C1CC(c2csc(C3CCN(C(=O)Cn4nc(C(F)F)cc4C(F)F)CC3)n2)=NO1)c1ccc(F)cc1 (stereo not drawn) [Example I-132] | 96 | 100
Cc1cc(C(F)(F)F)nn1CC(=O)N1CCC(c2nc(C3=NOC(c4cccc(F)c4OS(=O)(=O)C4CC4)C3)cs2)CC1 (stereo not drawn) [Example I-114] | 100 | 94
COC(=O)COc1ccc(C2CC(c3csc(C4CCN(C(=O)Cn5nc(C(F)F)cc5C(F)F)CC4)n3)=NO2)cc1 (stereo not drawn) [Example I-128] | 93 | 90
CC(=O)OCc1ccccc1C1CC(c2csc(C3CCN(C(=O)Cn4nc(C(F)F)cc4C(F)F)CC3)n2)=NO1 (stereo not drawn) [Example I-55] | 92 | 94
N#CCN(C=O)c1ccccc1C1CC(c2csc(C3CCN(C(=O)Cn4nc(C(F)F)cc4C(F)F)CC3)n2)=NO1 (stereo not drawn) [Example I-121] | 98 | 100
Cc1cc(C(F)(F)F)nn1CC(=O)N1CCC(c2nc(C3=NOC(c4c(Cl)cccc4OCC#N)C3)cs2)CC1 (stereo not drawn) [Example I-78] | 97 | 80
O=C(Cn1nc(C(F)F)cc1C(F)F)N1CCC(c2nc(C3=NOC(c4cccc(C=NO)c4)C3)cs2)CC1 (mixture of isomers) [Example I-22] | 100 | 100
N#CCOc1ccccc1C1CC(c2csc(C3CCN(C(=O)Cn4nc(C(F)F)cc4C(F)F)CC3)n2)=NO1 (stereo not drawn) [Example I-63] | 100 | 94
CN(C)C(=S)c1ccccc1C1CC(c2csc(C3CCN(C(=O)Cn4nc(C(F)F)cc4C(F)F)CC3)n2)=NO1 (stereo not drawn) [Example I-127] | 96 | 97
Cc1cc(C(F)(F)F)nn1CC(=O)N1CCC(c2nc(C3=NOC(c4c(F)cccc4OCC#N)C3)cs2)CC1 (stereo not drawn) [Example I-86] | 99 | 75
Cc1ccc(Cl)cc1NC(=O)N1CCC(c2nc(C3=NOC(c4ccccc4C=NO)C3)cs2)CC1 (mixture of isomers) [Example I-36] | 100 | 100
Cc1cc(C(F)F)nn1CC(=O)N1CCC(c2nc(C3=NOC(c4ccccc4OCC#N)C3)cs2)CC1 (stereo not drawn) [Example I-76] | 93 | 100
CSCOc1ccccc1C1CC(c2csc(C3CCN(C(=O)Cn4nc(C(F)(F)F)cc4C)CC3)n2)=NO1 (stereo not drawn) [Example I-120] | 95 | 89
C=CC(=O)Oc1ccccc1C1CC(c2csc(C3CCN(C(=O)Cn4nc(C(F)F)cc4C(F)F)CC3)n2)=NO1 (stereo not drawn) [Example I-116] | 100 | 98
CS(=O)(=O)Oc1cccc(Cl)c1C1CC(c2csc(C3CCN(C(=O)Cn4nc(C(F)F)cc4C(F)F)CC3)n2)=NO1 (stereo not drawn) [Example I-102] | 100 | 75
CC(=NO)c1cccc(C2CC(c3csc(C4CCN(C(=O)Cn5nc(C(F)(F)F)cc5C)CC4)n3)=NO2)c1 (stereo not drawn) [Example I-7] | 100 | 100
O=C(Cn1nc(C(F)F)cc1C(F)F)N1CCC(c2nc(C3=NOC(c4cc(F)ccc4OS(=O)(=O)C4CC4)C3)cs2)CC1 (stereo not drawn) [Example I-84] | 100 | 90
C#CCOCc1ccccc1C1CC(c2csc(C3CCN(C(=O)Cn4nc(C(F)(F)F)cc4C)CC3)n2)=NO1 (stereo not drawn) [Example I-46] | 94 | 94
